Data: ChEMBL document CHEMBL1681642, “Synthesis and biological activity of novel MIF antagonists” (Bioorg Med Chem Lett, 2011)

system: PBMC; test: Antiinflammatory activity in human PBMC assessed as inhibition of MIF-induced IL-6 production at 100 uM after 21 hrs by ELISA; assay type: functional; details: not given

Compound	inhibition at 100 µM [%]
FC(F)(F)c1cccc(-n2cc(C3=NOC(Cn4ccc5ccccc54)C3)c3ccccc32)c1 (stereo not given)	17
c1ccc(C2CC(c3ccoc3)=NO2)cc1 (stereo not given)	14
COC(=O)C1(C)CC(c2cn(-c3cccc(C(F)(F)F)c3)c3ccccc23)=NO1 (stereo not given)	65
FC(F)(F)c1cccc(-n2cc(C3=NOC(C4CCCCC4)C3)c3ccccc32)c1 (stereo not given)	19
O=C1c2ccccc2C(=O)N1C1CC(c2cn(-c3cccc(C(F)(F)F)c3)c3ccccc23)=NO1 (stereo not given)	24
c1cc(C2=NOC(CN3CCOCC3)C2)co1 (stereo not given)	49
COC(=O)CC1CC(c2ccc(O)cc2)=NO1 (stereo not given)	12

target: T1, Macrophage migration inhibitory factor (Homo sapiens) (UniProt P14174); test: Inhibition of human purified MIF tautomerase activity at 10 uM after 30 mins; details: not given
T1 sequence (whole entry): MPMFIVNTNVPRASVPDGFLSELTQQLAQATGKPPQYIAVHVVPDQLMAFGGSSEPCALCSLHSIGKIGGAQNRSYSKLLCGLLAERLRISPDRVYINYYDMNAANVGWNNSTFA

Compound	inhibition [%]
FC(F)(F)c1cccc(-n2cc(C3=NOC(Cn4ccc5ccccc54)C3)c3ccccc32)c1 (stereo not given)	18
c1ccc(C2CC(c3ccoc3)=NO2)cc1 (stereo not given)	17
COC(=O)C1(C)CC(c2cn(-c3cccc(C(F)(F)F)c3)c3ccccc23)=NO1 (stereo not given)	13
FC(F)(F)c1cccc(-n2cc(C3=NOC(C4CCCCC4)C3)c3ccccc32)c1 (stereo not given)	28
O=C1c2ccccc2C(=O)N1C1CC(c2cn(-c3cccc(C(F)(F)F)c3)c3ccccc23)=NO1 (stereo not given)	8
c1cc(C2=NOC(CN3CCOCC3)C2)co1 (stereo not given)	20
COC(=O)CC1CC(c2ccc(O)cc2)=NO1 (stereo not given)	8

system: PBMC; test: Antiinflammatory activity in human PBMC assessed as inhibition of MIF-induced IL-6 production at 30 uM after 21 hrs by ELISA; assay type: functional; details: not given

Compound	inhibition at 30 µM [%]
FC(F)(F)c1cccc(-n2cc(C3=NOC(Cn4ccc5ccccc54)C3)c3ccccc32)c1 (stereo not given)	15
c1ccc(C2CC(c3ccoc3)=NO2)cc1 (stereo not given)	5
COC(=O)C1(C)CC(c2cn(-c3cccc(C(F)(F)F)c3)c3ccccc23)=NO1 (stereo not given)	25
FC(F)(F)c1cccc(-n2cc(C3=NOC(C4CCCCC4)C3)c3ccccc32)c1 (stereo not given)	4
O=C1c2ccccc2C(=O)N1C1CC(c2cn(-c3cccc(C(F)(F)F)c3)c3ccccc23)=NO1 (stereo not given)	6
c1cc(C2=NOC(CN3CCOCC3)C2)co1 (stereo not given)	39
COC(=O)CC1CC(c2ccc(O)cc2)=NO1 (stereo not given)	11

target: T1, Macrophage migration inhibitory factor (Homo sapiens); test: Inhibition of human purified MIF tautomerase activity at 100 uM after 30 mins; details: not given

Compound	inhibition [%]
FC(F)(F)c1cccc(-n2cc(C3=NOC(Cn4ccc5ccccc54)C3)c3ccccc32)c1 (stereo not given)	100
c1ccc(C2CC(c3ccoc3)=NO2)cc1 (stereo not given)	59
COC(=O)C1(C)CC(c2cn(-c3cccc(C(F)(F)F)c3)c3ccccc23)=NO1 (stereo not given)	66
FC(F)(F)c1cccc(-n2cc(C3=NOC(C4CCCCC4)C3)c3ccccc32)c1 (stereo not given)	100
O=C1c2ccccc2C(=O)N1C1CC(c2cn(-c3cccc(C(F)(F)F)c3)c3ccccc23)=NO1 (stereo not given)	47
c1cc(C2=NOC(CN3CCOCC3)C2)co1 (stereo not given)	56
COC(=O)CC1CC(c2ccc(O)cc2)=NO1 (stereo not given)	59

system: PBMC; test: Antiinflammatory activity in human PBMC assessed as inhibition of MIF-induced TNFalpha production at 100 uM after 21 hrs by ELISA; assay type: functional; details: not given

Compound	inhibition at 100 µM [%]
FC(F)(F)c1cccc(-n2cc(C3=NOC(Cn4ccc5ccccc54)C3)c3ccccc32)c1 (stereo not given)	30
c1ccc(C2CC(c3ccoc3)=NO2)cc1 (stereo not given)	50
COC(=O)C1(C)CC(c2cn(-c3cccc(C(F)(F)F)c3)c3ccccc23)=NO1 (stereo not given)	81
FC(F)(F)c1cccc(-n2cc(C3=NOC(C4CCCCC4)C3)c3ccccc32)c1 (stereo not given)	27
O=C1c2ccccc2C(=O)N1C1CC(c2cn(-c3cccc(C(F)(F)F)c3)c3ccccc23)=NO1 (stereo not given)	63
c1cc(C2=NOC(CN3CCOCC3)C2)co1 (stereo not given)	0
COC(=O)CC1CC(c2ccc(O)cc2)=NO1 (stereo not given)	35

system: not listed separately; test: Cytotoxicity against human PBMC assessed as cell viability measured during cytokines production assay at 100 uM after 21 hrs by MTS assay; assay type: cell-based; details: PBMC (peripheral blood mononuclear cells)

Compound	cytotoxicity at 21 h, 100 µM [%]
FC(F)(F)c1cccc(-n2cc(C3=NOC(Cn4ccc5ccccc54)C3)c3ccccc32)c1 (stereo not given)	16
c1ccc(C2CC(c3ccoc3)=NO2)cc1 (stereo not given)	16
COC(=O)C1(C)CC(c2cn(-c3cccc(C(F)(F)F)c3)c3ccccc23)=NO1 (stereo not given)	2
FC(F)(F)c1cccc(-n2cc(C3=NOC(C4CCCCC4)C3)c3ccccc32)c1 (stereo not given)	7
O=C1c2ccccc2C(=O)N1C1CC(c2cn(-c3cccc(C(F)(F)F)c3)c3ccccc23)=NO1 (stereo not given)	11
c1cc(C2=NOC(CN3CCOCC3)C2)co1 (stereo not given)	6
COC(=O)CC1CC(c2ccc(O)cc2)=NO1 (stereo not given)	10

target: T1, Macrophage migration inhibitory factor (Homo sapiens); test: Inhibition of MIF in human PBMC assessed as MIF secretion at 100 uM after 5 hrs by ELISA; details: not given

Compound	inhibition [%]
FC(F)(F)c1cccc(-n2cc(C3=NOC(Cn4ccc5ccccc54)C3)c3ccccc32)c1 (stereo not given)	8
c1ccc(C2CC(c3ccoc3)=NO2)cc1 (stereo not given)	68
COC(=O)C1(C)CC(c2cn(-c3cccc(C(F)(F)F)c3)c3ccccc23)=NO1 (stereo not given)	0
FC(F)(F)c1cccc(-n2cc(C3=NOC(C4CCCCC4)C3)c3ccccc32)c1 (stereo not given)	22
O=C1c2ccccc2C(=O)N1C1CC(c2cn(-c3cccc(C(F)(F)F)c3)c3ccccc23)=NO1 (stereo not given)	0
c1cc(C2=NOC(CN3CCOCC3)C2)co1 (stereo not given)	78
COC(=O)CC1CC(c2ccc(O)cc2)=NO1 (stereo not given)	87

target: T1, Macrophage migration inhibitory factor (Homo sapiens); test: Inhibition of MIF in human PBMC assessed as MIF secretion at 10 uM after 5 hrs by ELISA; details: not given

Compound	inhibition [%]
FC(F)(F)c1cccc(-n2cc(C3=NOC(Cn4ccc5ccccc54)C3)c3ccccc32)c1 (stereo not given)	0
c1ccc(C2CC(c3ccoc3)=NO2)cc1 (stereo not given)	37
COC(=O)C1(C)CC(c2cn(-c3cccc(C(F)(F)F)c3)c3ccccc23)=NO1 (stereo not given)	4
FC(F)(F)c1cccc(-n2cc(C3=NOC(C4CCCCC4)C3)c3ccccc32)c1 (stereo not given)	1
O=C1c2ccccc2C(=O)N1C1CC(c2cn(-c3cccc(C(F)(F)F)c3)c3ccccc23)=NO1 (stereo not given)	0
c1cc(C2=NOC(CN3CCOCC3)C2)co1 (stereo not given)	44
COC(=O)CC1CC(c2ccc(O)cc2)=NO1 (stereo not given)	35

system: not listed separately; test: Cytotoxicity against human PBMC assessed as cell viability measured during MIF secretion assay at 100 uM after 21 hrs by MTS assay; assay type: cell-based; details: PBMC (peripheral blood mononuclear cells)

Compound	cytotoxicity at 21 h, 100 µM [%]
FC(F)(F)c1cccc(-n2cc(C3=NOC(Cn4ccc5ccccc54)C3)c3ccccc32)c1 (stereo not given)	0
c1ccc(C2CC(c3ccoc3)=NO2)cc1 (stereo not given)	0
COC(=O)C1(C)CC(c2cn(-c3cccc(C(F)(F)F)c3)c3ccccc23)=NO1 (stereo not given)	5
FC(F)(F)c1cccc(-n2cc(C3=NOC(C4CCCCC4)C3)c3ccccc32)c1 (stereo not given)	15
O=C1c2ccccc2C(=O)N1C1CC(c2cn(-c3cccc(C(F)(F)F)c3)c3ccccc23)=NO1 (stereo not given)	0
c1cc(C2=NOC(CN3CCOCC3)C2)co1 (stereo not given)	0
COC(=O)CC1CC(c2ccc(O)cc2)=NO1 (stereo not given)	8

system: PBMC; test: Antiinflammatory activity in human PBMC assessed as inhibition of MIF-induced IL1-beta production at 100 uM after 21 hrs by ELISA; assay type: functional; details: not given

Compound	inhibition at 100 µM [%]
FC(F)(F)c1cccc(-n2cc(C3=NOC(Cn4ccc5ccccc54)C3)c3ccccc32)c1 (stereo not given)	44
c1ccc(C2CC(c3ccoc3)=NO2)cc1 (stereo not given)	31
COC(=O)C1(C)CC(c2cn(-c3cccc(C(F)(F)F)c3)c3ccccc23)=NO1 (stereo not given)	89
FC(F)(F)c1cccc(-n2cc(C3=NOC(C4CCCCC4)C3)c3ccccc32)c1 (stereo not given)	43
O=C1c2ccccc2C(=O)N1C1CC(c2cn(-c3cccc(C(F)(F)F)c3)c3ccccc23)=NO1 (stereo not given)	43
c1cc(C2=NOC(CN3CCOCC3)C2)co1 (stereo not given)	32
COC(=O)CC1CC(c2ccc(O)cc2)=NO1 (stereo not given)	34
